# Assay results from US20050123602A1, “Rifalazil formulations” (priority 2003, published 2005).
# Assay: Pharmacokinetics after single peroral administration of 5 mg rifalazil, fed and fasted
# Format: in vivo, beagle dogs
# Conditions: dogs, liquid-filled vs microgranulated
# Protocol: Pharmacokinetic parameters were determined following a single peroral administration of 5 mg of rifalazil in healthy male beagle dogs. The rifalazil was formulated either as a liquid-filled capsule of Example 3 or as a powder-filled capsule containing microgranulated rifalazil as described in U.S. Pat. No. 5,547,683.
# Both formulations were administered under fed and fasted conditions. All animals were fasted overnight prior to dosing. Animals designated as “fed” were administered a blended combination of dog chow and water in a 1:3 ratio (e.g. 250 g chow and 750 g water) via oral gavage at a dose volume of 20 mL/kg within approximately 30 minutes prior to dosing and food was provided Ad-libitum after approximately 4 hours following dosing. Animals in “fasted” groups were not fed prior to dosing and food was withheld until after approximately 4 hours after dosing. […]
# Pharmacokinetic endpoints and parameters were calculated by noncompartmental analysis (NCA) using WinNonlin®.
# The pharmacokinetic parameters Tmax, Cmax, AUCt, AUC∞, T1/2 (elimination), and F (bioavailability) were calculated as well as the coefficient of variation (CV) in each. […]
smiles,measurement,value
"CO[C@H]1/C=C/O[C@@]2(C)Oc3c(C)c(O)c4c(=O)c(c5oc6cc(N7CCN(CC(C)C)CC7)cc(O)c6nc-5c4c3C2=O)NC(=O)/C(C)=C\C=C\[C@H](C)[C@H](O)[C@@H](C)[C@@H](O)[C@@H](C)[C@H](OC(C)=O)[C@@H]1C [rifalazil, Rifalazil]",effect of changes in the formulation upon elimination half-life (T1/2),no effect
